Measured values: ChEMBL document CHEMBL3102853, “Carbonic anhydrase inhibitors. Synthesis, and molecular structure of novel series N-substituted N'-(2-arylmethylthio-4-chloro-5-methylbenzenesulfonyl)guanidines and their inhibition of human cytosolic isozymes I and II and the transmembrane tumor-associated isozymes IX and XII” (Eur J Med Chem, 2014)

Legend:
Assay type in all cases: functional
M14 = assay: Cytotoxicity against human M14 cells
SK-MEL-28 = assay: Cytotoxicity against human SK-MEL-28 cells
HT-29 = assay: Cytotoxicity against human HT-29 cells at 10 uM; conditions: read-out: GI
A498 = assay: Cytotoxicity against human A498 cells
KM12 = assay: Cytotoxicity against human KM12 cells
SR = assay: Cytotoxicity against human SR cells
OVCAR-3 = assay: Cytotoxicity against human OVCAR3 cells
[1] = Cytotoxicity against human Hs 578T cells
SNB-75 = assay: Cytotoxicity against human SNB75 cells
SF-268 [2] = assay: Cytotoxicity against human SF268 cells
LOX IMVI = assay: Cytotoxicity against human LOXIMVI cells at 10 uM; conditions: read-out: GI
MCF7 [3] = assay: Cytotoxicity against human MCF7 cells
OVCAR-8 = assay: Cytotoxicity against human OVCAR8 cells
HCT-116 = assay: Cytotoxicity against human HCT116 cells
NCI-H460 = assay: Cytotoxicity against human NCI-H460 cells
[4] = Cytotoxicity against human Hs 578T cells at 10 uM; conditions: read-out: GI
PC-3 [5] = assay: Cytotoxicity against human PC3 cells
MDA-MB-435 = assay: Cytotoxicity against human MDA-MB-435 cells
SK-MEL-2 = assay: Cytotoxicity against human SK-MEL-2 cells at 10 uM; conditions: read-out: GI
SNB-19 = assay: Cytotoxicity against human SNB19 cells
MOLT-4 = assay: Cytotoxicity against human MOLT4 cells at 10 uM; conditions: read-out: GI
BT-549 = assay: Cytotoxicity against human BT549 cells
COLO 205 = assay: Cytotoxicity against human COLO205 cells
PC-3 [6] = assay: Cytotoxicity against human PC3 cells at 10 uM; conditions: read-out: GI
MDA-MB-231 = assay: Cytotoxicity against human MDA-MB-231 cells
IGROV-1 = assay: Cytotoxicity against human IGROV1 cells
SF-268 [7] = assay: Cytotoxicity against human SF268 cells at 10 uM; conditions: read-out: GI
MCF7 [8] = assay: Cytotoxicity against human MCF7 cells at 10 uM; conditions: read-out: GI
[9] = read-out: LC50 (the source's name)

With `Cc1cc(S(=O)(=O)NC(=N)NCc2ccc(S(N)(=O)=O)cc2)c(SCc2ccc(C(F)(F)F)cc2)cc1Cl` the GI50 (M14) was 4.5 µM, the TGI (M14) was 16.8 µM and the CC50 (M14; [9]) was 49.6 µM. It also gave a GI50 (SK-MEL-28) of 3.6 µM, a TGI (SK-MEL-28) of 14 µM and a CC50 (SK-MEL-28; [9]) of 44.3 µM. For the same molecule, the inhibition of growth at 10 µM (HT-29) was 79%, the GI50 (A498) was 3.1 µM and the TGI (A498) was 17.3 µM. For the same molecule, the CC50 (A498; [9]) was 46.5 µM, the GI50 (KM12) was 3.1 µM and the TGI (KM12) was 10.1 µM. For the same molecule, the CC50 (KM12; [9]) was 41.7 µM, the GI50 (SR) was 2.4 µM and the TGI (SR) was 6.8 µM. It also gave a CC50 (SR; [9]) of over 100 µM, a GI50 (OVCAR-3) of 4.3 µM and a TGI (OVCAR-3) of 15.4 µM. For the same molecule, the CC50 (OVCAR-3; [9]) was 41 µM, the GI50 [1] was 4.6 µM and the TGI [1] was 24.1 µM. It also gave a CC50 [1, 9] of over 100 µM, a GI50 (SNB-75) of 3 µM and a TGI (SNB-75) of 15.9 µM. The CC50 (SNB-75; [9]) was 56.4 µM, the GI50 (SF-268 [2]) was 4.8 µM and the TGI (SF-268 [2]) was 18.5 µM. For the same molecule, the CC50 (SF-268 [2]; [9]) was 55.8 µM, the inhibition of growth at 10 µM (LOX IMVI) was 67% and the GI50 (MCF7 [3]) was 3.3 µM. The TGI (MCF7 [3]) was 13.6 µM, the CC50 (MCF7 [3]; [9]) was 67.1 µM and the GI50 (OVCAR-8) was 5 µM. The TGI (OVCAR-8) was 21 µM, the CC50 (OVCAR-8; [9]) was 70.2 µM and the GI50 (HCT-116) was 4.1 µM. It also gave a TGI (HCT-116) of 15.9 µM, a CC50 (HCT-116; [9]) of 46.6 µM and a GI50 (NCI-H460) of 3.8 µM. For the same molecule, the TGI (NCI-H460) was 15.7 µM, the CC50 (NCI-H460; [9]) was 63.9 µM and the inhibition of growth at 10 µM [4] was 68%. The GI50 (PC-3 [5]) was 3.3 µM, the TGI (PC-3 [5]) was 12.8 µM and the CC50 (PC-3 [5]; [9]) was 43.2 µM. For the same molecule, the GI50 (MDA-MB-435) was 3.8 µM, the TGI (MDA-MB-435) was 12.5 µM and the CC50 (MDA-MB-435; [9]) was 41.9 µM. It also gave an inhibition of growth at 10 µM (SK-MEL-2) of 94%, a GI50 (SNB-19) of 5 µM and a TGI (SNB-19) of 19.3 µM. For the same molecule, the CC50 (SNB-19; [9]) was 54.4 µM, the inhibition of growth at 10 µM (MOLT-4) was 48% and the GI50 (BT-549) was 4.4 µM. It also gave a TGI (BT-549) of 12.9 µM, a CC50 (BT-549; [9]) of 46.9 µM and a GI50 (COLO 205) of 3.5 µM. It also gave a TGI (COLO 205) of 11.4 µM, a CC50 (COLO 205; [9]) of 58.1 µM and an inhibition of growth at 10 µM (PC-3 [6]) of 83%. For the same molecule, the GI50 (MDA-MB-231) was 3.1 µM, the TGI (MDA-MB-231) was 8.9 µM and the CC50 (MDA-MB-231; [9]) was 34.5 µM. The GI50 (IGROV-1) was 4.9 µM, the TGI (IGROV-1) was 17.7 µM and the CC50 (IGROV-1; [9]) was 64.8 µM. The inhibition of growth at 10 µM (SF-268 [7]) was 69% and the inhibition of growth at 10 µM (MCF7 [8]) was 47%.
